From publication PMC9949808 (eLife, 2023)

Experiments:
PSII reaction centre = biological target: T1, PSII reaction centre (Dunaliella salina, UniProt A0A1C8XRK9+D0FY08); test: cryo-EM structure; format: binding; settings: type a inferred
T1 construct: gene psbA; native D1/D2 heterodimer in PSII C2S2 supercomplex purified from D. salina

[1] = biological target: photosystem II (PSII) core, one of the two cores of the dimer (Dunaliella salina); test: cryo-EM structure; native PSII purified from D. salina thylakoids (1% α-DM, sucrose gradient), in 25 mM MES pH 6.5, 1 mM CaCl2, 5 mM MgCl2, 0.1% α-DM; unstacked particles: C2S2 compact 2.43 Å, C2S2 stretched 2.62 Å, C2S 3.61 Å

Which cryo-EM structure (PSII reaction centre) does the source give for `C=Cc1c(C)c2cc3nc(c4c5[nH]c(cc6nc(cc1[nH]2)C(C)=C6CC)c(C)c5C(=O)[C@@H]4C(=O)OC)[C@@H](CCC(=O)OC/C=C(\C)CCC[C@H](C)CCC[C@H](C)CCCC(C)C)[C@@H]3C` [pheophytin] here?
Its cryo-EM structure is “PSII reaction centre chlorophylls (Chls), pheophytins, and quinone”.

“photosystem II (PSII) core, one of the two cores of the dimer (complex)” was tested. Which stoichiometry N [1] did it give?
Its stoichiometry N is 2.
